Measured values as given in patent US20170009266A1, “PROCESS FOR THE ATTACHMENT OF A GALNAC MOIETY COMPRISING A (HETERO)ARYL GROUP TO A GLCNAC MOIETY, AND PRODUCT OBTAINED THEREBY” (SYNAFFIX B.V., priority 2014, published 2017).

Target: T1, Gal-T1(Y289L,C342T) (Bos taurus, UniProt P08037, C342T/Y289L)
T1 construct: host or cells: E. coli
T1 sequence (P08037 130-402 V158I/P187L/I205M/L206V/Y289L/C342T): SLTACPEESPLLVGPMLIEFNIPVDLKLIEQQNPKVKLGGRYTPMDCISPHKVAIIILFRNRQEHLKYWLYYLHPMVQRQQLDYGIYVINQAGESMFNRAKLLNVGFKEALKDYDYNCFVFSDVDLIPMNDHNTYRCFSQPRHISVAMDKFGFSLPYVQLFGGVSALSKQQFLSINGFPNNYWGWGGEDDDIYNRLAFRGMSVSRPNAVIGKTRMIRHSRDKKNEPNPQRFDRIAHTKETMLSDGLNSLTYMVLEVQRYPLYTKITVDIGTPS
Test: Glycosyltransfer of UDP-galactosamine derivatives to trimmed antibody with Gal-T1(Y289L,C342T), mass spectral analysis
Assay type: biochemical, bovine
Procedure: A solution of 20 μg (modified) IgG was incubated for 1 hour at 37° C. with Fabricator™ (commercially available from Genovis, Lund, Sweden) (1.25 U/μL) in phosphate-buffered saline (PBS) pH 6.6 in a total volume of 10 μL. Fabricator™-digested samples were washed trice with milliQ using an Amicon Ultra-0.5, Ultracel-10 Membrane (Millipore) resulting in a final sample volume of approximately 40 μL. The Fc/2 fragment was analyzed by electrospray ionization time-of-flight (ESI-TOF) on a JEOL AccuTOF. Deconvoluted spectra were obtained using Magtran software.
Trimmed trastuzumab (10 mg/mL, 3.3 nmol), obtained by Endo S treatment of trastuzumab, was incubated with nicotinic acid variant of UDP-galactosamine (21, 2 mM) and Gal-T1(Y289L,C342T) (0.5 mg/mL, 3 μL/4 mg/ml) in 10 mM MnCl2 and 25 mM Tris-HCl pH 7.5 at 30° C. overnight. Mass spectral analysis of the sample after treatment with Fabricator™ (commercially available from Genovis) indicated the formation of the correct structure of CH2-CH3 fragment of 28 (24404 Da, expected mass 24405 Da, approximately 35% conversion), resulting from galactosamide nicotinic acid transfer to core GlcNAc(Fuc) substituted trastuzumab heavy chain.
A pET22b vector containing the sequence encoding residues 130-402 of bovine Gal-T1 with the Y289L and C342T mutations between the NdeI-BamHI sites was obtained from Genscript. Using this plasmid Gal-T1(Y289L,C342T) was expressed, isolated and refolded from inclusion bodies according to the reported procedure by Qasba et al. (Prot. Expr. Pur. 2003, 30, 219-76229, incorporated by reference herein). After refolding, the solution was dialyzed against 20 mM Tris pH 7.5 and the insoluble protein was removed by centrifugation (10 minutes 10.000 g). The soluble Gal-T1(Y289L,C342T), represented by SEQ ID NO: 25, was purified and concentrated using a cation exchange column (Source 15S HR16/10 column, GE Healthcare). After elution with 20 mM Tris-HCl pH 7.5, 1 M NaCl, the protein was dialyzed against 20 mM Tris-HCl pH 7.5. This procedure yielded 90 mg inclusion bodies from 0.5 L culture, which after refolding gave 3.9 mg active soluble protein.
Trimmed trastuzumab (10 mg/mL, 66 μM), obtained by Endo S treatment of trastuzumab, was incubated with the 4-azido-2,3,5,6-tetrafluorobenzoyl derivative of UDP-galactosamine (23b, 1 mM) and Gal-T1(Y289L,C342T) (1.0 mg/mL) in 10 mM MnCl2 and 25 mM Tris-HCl pH 8.0 at 30° C. overnight. Mass spectral analysis of the Fabricator™-digested sample indicated a partial conversion of core GlcNac(Fuc)-substituted trastuzumab (observed mass 24139 Da, calculated mass of 24136 Da) into the product 30b (observed mass 24518 Da, calculated mass of 24514 Da, approximately 10% of total Fc/2 fragment), resulting from transfer of 23b to core GlcNAc(Fuc)-substituted trastuzumab.
Trimmed cetuximab (5 mg/mL, 33 μM), obtained by Endo S treatment of cetuximab, was incubated with the 4-azido-2,3,5,6-tetrafluorobenzoyl derivative of UDP-galactosamine (23b, 2 mM) and Gal-T1(Y289L,C342T) (1.0 mg/mL) in 25 mM Tris-HCL pH 7.5 and 150 mM NaCl at 30° C. overnight. Mass spectral analysis of the Fabricator™-digested sample indicated a partial conversion of the core GlcNac(Fuc)-substituted adalimumab (observed mass 24138 Da, calculated mass of 24136 Da) into product 30b (observed mass 24518 Da, calculated mass of 24514 Da, approximately 20% of total Fc/2 fragment), resulting from transfer of 23b to core GlcNAc(Fuc)-substituted adalimumab.
Trimmed bevacizumab (5 mg/mL, 33 μM), obtained by Endo S treatment of bevacizumab, was incubated with the 4-azido-2,3,5,6-tetrafluorobenzoyl derivative of UDP-galactosamine (23b, 2 mM) and Gal-T1(Y289L,C342T) (1.0 mg/mL) in 25 mM Tris-HCL pH 7.5 and 150 mM NaCl at 30° C. overnight. […]

SMILES: O=C(NC1C(OP(=O)(O)OP(=O)(O)OCC2OC(n3ccc(=O)[nH]c3=O)C(O)C2O)OC(CO)C(O)C1O)c1cccnc1 (stereo not shown) [Compound 21, 3-pyridylcarbonyl Derivative of UDP-GalNH2]
- conversion (trimmed trastuzumab 10 mg/mL, UDP derivative 2 mM, enzyme 0.5 mg/mL (E. coli), pH 7.5, 30° C. overnight, Fabricator-digested): approximately 35%

SMILES: [N-]=[N+]=Nc1ccc(C(=O)NC2C(OP(=O)(O)OP(=O)(O)OCC3OC(n4ccc(=O)[nH]c4=O)C(O)C3O)OC(CO)C(O)C2O)cn1 (stereo not shown) [Compound 21b, 6-azidonicotinic Acid Derivative of UDP-GalNH2]
- product, % of total Fc/2 fragment (trimmed trastuzumab 10 mg/mL, UDP derivative 5 mM, enzyme 1.0 mg/mL, pH 7.5, 30° C. overnight): approximately 95%

SMILES: [N-]=[N+]=Nc1c(F)c(F)c(C(=O)N[C@H]2[C@@H](OP(=O)(O)OP(=O)(O)OC[C@H]3O[C@@H](n4ccc(=O)[nH]c4=O)[C@H](O)[C@@H]3O)O[C@H](CO)[C@H](O)[C@@H]2O)c(F)c1F [Compound 23b, 4-azido-2,3,5,6-tetrafluorobenzoyl Derivative of UDP-GalNH2]
- product, % of total Fc/2 fragment (trimmed adalimumab 5 mg/mL, UDP derivative 2 mM, enzyme 1.0 mg/mL, pH 7.5, 30° C. overnight): approximately 30%
- product, % of total Fc/2 fragment (trimmed bevacizumab 5 mg/mL, UDP derivative 2 mM, enzyme 1.0 mg/mL, pH 7.5, 30° C. overnight): approximately 30%
- product, % of total Fc/2 fragment (trimmed cetuximab 5 mg/mL, UDP derivative 2 mM, enzyme 1.0 mg/mL, pH 7.5, 30° C. overnight): approximately 20%
- product, % of total Fc/2 fragment (trimmed trastuzumab 10 mg/mL, UDP derivative 1 mM, enzyme 1.0 mg/mL, pH 8.0, 30° C. overnight): approximately 10%

SMILES: [N-]=[N+]=Nc1c(F)cc(C(=O)N[C@H]2[C@@H](OP(=O)(O)OP(=O)(O)OC[C@H]3O[C@@H](n4ccc(=O)[nH]c4=O)[C@H](O)[C@@H]3O)O[C@H](CO)[C@H](O)[C@@H]2O)cc1F [Compound 23, 4-azido-3,5-difluorobenzoyl Derivative of UDP-GalNH2]
- conversion of core GlcNAc(Fuc)-substituted trastuzumab into product (trimmed trastuzumab 10 mg/mL, UDP derivative 1 mM, enzyme 1.0 mg/mL, pH 8.0, 30° C. overnight, reduced sample): complete conversion
